Laboratory results as given in article PMC7756341, “Liposomal FRET Assay Identifies Potent Drug‐Like Inhibitors of the Ceramide Transport Protein (CERT)” (Chemistry (Weinheim an Der Bergstrasse, Germany), 2020).
“And” between values parts separate entries of the source, which are not always exact repeats. Equal values may be shown once.

Tests used:
HeLa cells [1] = assay: Sphingolipid content of treated HeLa cells by quantitative mass spectrometry; format: cell-based; conditions: for Cer16 / Cer18 / Cer20 / Cer22 / Cer24 / Cer24:1 / Cer total / S1P / SM16 / SM18 / SM20 / SM22 / SM24 / SM24:1 / SM total / Sph / ratio total SM/Cer: HeLa, 42h, single replicates; for Cer16 / Cer18 / Cer20 / Cer22 / Cer24 / Cer24:1 / Cer total / S1P / SM16 / SM18 / SM20 / SM22 / SM24 / SM24:1 / SM total / Sph: 500.000 cells per sample
Procedure: 5.2 Cellular experiment for lipidomic analysis
Hela cells were cultured in six well plates (177000 cells per well) under standard growth conditions (DMEM with 4mM L-glutamine, 10% FBS, 1% Penicillin-Streptomycin; CO2 incubator with […]
37°C, 5% CO2). […]
After incubation, […]
the adherent cells were washed twice with ice-cold PBS and harvested by treatment with trypsin.
Cells were counted using a Countess II cell counter ( Invitrogen) and adjusted to 500.000 cells per sample. Each sample was then treated as described below.
6. Details for experimental lipidomics
Cells were subjected to lipid extraction using 1.5 mL methanol/chloroform (2:1, v:v) as described. The extraction solvent contained C17-ceramide (Cer17) and C16 -d31-sphingomyelin (d31-SM16) (both Avanti Polar Lipids, Alabaster, USA) as internal standards. Chromatographic separations were achieved on a 1260 Infinity HPLC (Agilent Technologies, Waldbronn, Germany) equipped with a Poroshell 120 EC-C8 column (3.0 × 150 mm, 2.7 µm; Agilent Technologies). A mobile phase system consisting of water (solvent A) and acetonitrile/methanol (1:1, v:v; solvent B), both acidified with 0.1% formic acid, was used for gradient elution at an initial composition of 40:60 (A:B, v:v) and a flow rate of 0.5 mL/min. MS/MS analyses were carried out using a 6490 triple-quadrupole mass spectrometer (Agilent Technologies) operating in the positive electrospray ionization mode (ESI+). The following ion source parameters were set: sheath gas temperature, 375 °C; sheath gas flow, 12 L/min of nitrogen; nebulizer pressure, 30 psi; drying gas temperature, 200 °C; drying gas flow, 15 L/min of nitrogen; capillary voltage, 4000 V; nozzle voltage, 1500 V; iFunnel high pressure RF voltage, 150 V and iFunnel low pressure RF voltage, 60 V. The following mass transitions were recorded (collision energies of 25 eV for all transitions): ceramides: m/z […]
with MassHunter Software (Agilent Technologies). Significance of differences between two samples was calculated by student’s t -test. Asterisks indicate significant differences between treated and untreated samples: * p<0.05; ** p<0.01; *** p<0.005.
Table S1. Sphingolipid content of treated cells.
(§1) (1 picture or pasted object on this page, not shown here)

HeLa cells [2] = assay: Cellular localization of BODIPY-ceramide by confocal microscopy; format: cell-based; conditions: 10 µM inhibitor, 2 h
Procedure: 5.1 Cellular Localization of BODIPY-Ceramide
HeLa cells were seeded in 8 well chamber slides (ibidi µ-Slide 8 Well) in RPMI 1640 medium supplemented with 10% (v/v) heat‐inactivated FCS, 1 mM sodium pyruvate and 2 mM L-glutamine at 37 °C and 5% (v/v) CO2 in a humidified incubator. The day after, cells were incubated with inhibitors for 2 h at a concentration of 10 µM or left untreated by replacing the medium with fresh medium supplemented with the respective inhibitors. After 2 h of incubation, BODIPY FL C5-ceramide (Thermo Fisher) was added to a final concentration of 0,25 µM and imaging was immediately done using an LSM 780 laser scanning confocal microscope (Carl Zeiss). No additional wash steps were performed. After 1 h of incubation, DNA was counterstained using Hoechst 33342. For quantification of BODIPY-Ceramide trafficking, cells were transfected with pECFP-GalT the day before inhibitor incubation for the expression of an eCFP fusion of the human galactosyltransferase (GalT; amino acids 1-60), which localizes at the Golgi apparatus. After incubation with the respective inhibitors (see above), cells were imaged at 30 min post addition of BODIPY FL C5-ceramide. Mean BODIPY intensities of regions of interest surrounding eCFP-GalT-positive Golgi stacks were measured (40 cells per biological replicate, 4 biological replicates in total) using ImageJ software (Rasband, W.S., ImageJ, U. S. National Institutes of Health, Bethesda, Maryland, USA, https://imagej.nih.gov/ij/, 1997-2018) and divided by the total BODIPY intensity detected in the field of view. Quantification (Fig 10B) is expressed as normalized intensity ratio (GA/total).
Figure S10. A Uptake of BODIPY FL C5-ceramide to HeLa cells assessed by normalized fluorescence intensity B Distribution of BODIPY FL C5-ceramide by normalized fluorescence […]
as §1
Figure S11. BODIPY-Ceramide trafficking. Confocal images showing distribution of BODIPY FL C5-ceramide (green) and Golgi apparatus costaining (eCFP-GalT; blue) in HeLa cells pretreated with 10 µM of respective inhibitors or left untreated. Figures show representative images (n = 4 biological replicates with 40 cells per biological replicate); scale bars, 10 µm.

In the case of `CCCC(=O)OCOC(=O)C1=C(C)NC(C)=C(C(=O)OC)C1c1cccc(Cl)c1Cl` (stereo not drawn) [6B11, Clevidipine butyrate], the “effect on SM/Cer rate” value (HeLa cells [1]; HeLa cells) is reported as “dramatically increased”, the “effect on total sphingomyelin” value (HeLa cells [1]; HeLa cells, 48 hours, serum-reduced medium) is reported as “no significant changes” and the Cer16 (HeLa cells [1]; 1 µM) is reported as 35,47 pmol/sample and 30,33 pmol/sample and 32,28 pmol/sample. For the same compound, the Cer18 (HeLa cells [1]; 1 µM) was 3,21 pmol/sample and 3,62 pmol/sample and 2,31 pmol/sample, the Cer20 (HeLa cells [1]; 1 µM) was 0,82 pmol/sample and 1,87 pmol/sample and 0,75 pmol/sample and the Cer22 (HeLa cells [1]; 1 µM) was 6,64 pmol/sample and 6,96 pmol/sample and 5,21 pmol/sample. For the same compound, the Cer24 (HeLa cells [1]; 1 µM) was 21,95 pmol/sample and 20,24 pmol/sample and 18,20 pmol/sample, the “Cer24:1” value (HeLa cells [1]; 1 µM) was 41,58 pmol/sample and 36,60 pmol/sample and 35,42 pmol/sample and the Cer total (HeLa cells [1]; 1 µM) was 109,68 pmol/sample and 101,56 pmol/sample and 92,23 pmol/sample. The S1P (HeLa cells [1]; 1 µM) was 1,30 pmol/sample (2×) and 1,12 pmol/sample, the SM16 (HeLa cells [1]; 1 µM) was 1664,57 pmol/sample and 1753,19 pmol/sample and 1827,88 pmol/sample and the SM18 (HeLa cells [1]; 1 µM) was 49,35 pmol/sample and 48,17 pmol/sample and 50,13 pmol/sample. The SM20 (HeLa cells [1]; 1 µM) was 16,44 pmol/sample and 17,01 pmol/sample and 16,12 pmol/sample, the SM22 (HeLa cells [1]; 1 µM) was 97,77 pmol/sample and 109,23 pmol/sample and 104,57 pmol/sample and the SM24 (HeLa cells [1]; 1 µM) was 148,40 pmol/sample and 164,36 pmol/sample and 157,65 pmol/sample. The “SM24:1” value (HeLa cells [1]; 1 µM) was 734,55 pmol/sample and 781,78 pmol/sample and 776,18 pmol/sample, the SM total (HeLa cells [1]; 1 µM) was 2711,09 pmol/sample and 2873,72 pmol/sample and 2932,53 pmol/sample and the Sph (HeLa cells [1]; 1 µM) was 2,93 pmol/sample and 3,14 pmol/sample and 2,69 pmol/sample. For the same compound, the “ratio total SM/Cer” value (HeLa cells [1]; 1 µM) was 29,4 and 26,2 and 28,9, the Cer16 (HeLa cells [1]; 2.5 µM) was 31,11 pmol/sample and 34,56 pmol/sample and 32,33 pmol/sample and the Cer18 (HeLa cells [1]; 2.5 µM) was 2,90 pmol/sample and 3,36 pmol/sample and 2,45 pmol/sample. For the same compound, the Cer20 (HeLa cells [1]; 2.5 µM) was 1,10 pmol/sample and 1,04 pmol/sample and 0,67 pmol/sample, the Cer22 (HeLa cells [1]; 2.5 µM) was 6,09 pmol/sample and 6,54 pmol/sample and 4,24 pmol/sample and the Cer24 (HeLa cells [1]; 2.5 µM) was 19,85 pmol/sample and 19,17 pmol/sample and 13,13 pmol/sample. For the same compound, the “Cer24:1” value (HeLa cells [1]; 2.5 µM) was 35,16 pmol/sample and 36,98 pmol/sample and 34,53 pmol/sample, the Cer total (HeLa cells [1]; 2.5 µM) was 96,21 pmol/sample and 101,65 pmol/sample and 87,36 pmol/sample and the S1P (HeLa cells [1]; 2.5 µM) was 1,11 pmol/sample (2×) and 1,10 pmol/sample. The SM16 (HeLa cells [1]; 2.5 µM) was 1754,78 pmol/sample and 1844,30 pmol/sample and 1802,54 pmol/sample, the SM18 (HeLa cells [1]; 2.5 µM) was 52,01 pmol/sample and 48,63 pmol/sample and 47,35 pmol/sample and the SM20 (HeLa cells [1]; 2.5 µM) was 16,63 pmol/sample and 16,52 pmol/sample and 14,33 pmol/sample. The SM22 (HeLa cells [1]; 2.5 µM) was 104,73 pmol/sample and 101,64 pmol/sample and 87,68 pmol/sample, the SM24 (HeLa cells [1]; 2.5 µM) was 164,67 pmol/sample and 154,96 pmol/sample and 126,92 pmol/sample and the “SM24:1” value (HeLa cells [1]; 2.5 µM) was 701,62 pmol/sample and 752,78 pmol/sample and 753,00 pmol/sample. The SM total (HeLa cells [1]; 2.5 µM) was 2780,44 pmol/sample and 2845,61 pmol/sample and 2919,05 pmol/sample, the Sph (HeLa cells [1]; 2.5 µM) was 3,54 pmol/sample and 2,83 pmol/sample and 2,99 pmol/sample and the “ratio total SM/Cer” value (HeLa cells [1]; 2.5 µM) was 31,8 and 29,6 and 28,7. For the same compound, the Cer16 (HeLa cells [1]; 5 µM) was 29,66 pmol/sample and 34,26 pmol/sample and 31,66 pmol/sample, the Cer18 (HeLa cells [1]; 5 µM) was 2,65 pmol/sample and 3,21 pmol/sample and 2,71 pmol/sample and the Cer20 (HeLa cells [1]; 5 µM) was 0,74 pmol/sample and 0,90 pmol/sample and 0,79 pmol/sample. For the same compound, the Cer22 (HeLa cells [1]; 5 µM) was 5,38 pmol/sample and 6,67 pmol/sample and 6,09 pmol/sample, the Cer24 (HeLa cells [1]; 5 µM) was 17,46 pmol/sample and 20,37 pmol/sample and 20,18 pmol/sample and the “Cer24:1” value (HeLa cells [1]; 5 µM) was 36,92 pmol/sample and 40,53 pmol/sample and 39,54 pmol/sample. The Cer total (HeLa cells [1]; 5 µM) was 92,81 pmol/sample and 105,93 pmol/sample and 100,96 pmol/sample, the S1P (HeLa cells [1]; 5 µM) was 1,11 pmol/sample and 1,25 pmol/sample and 1,08 pmol/sample and the SM16 (HeLa cells [1]; 5 µM) was 1762,30 pmol/sample and 1782,59 pmol/sample and 1722,69 pmol/sample. For the same compound, the SM18 (HeLa cells [1]; 5 µM) was 53,21 pmol/sample and 52,89 pmol/sample and 50,26 pmol/sample, the SM20 (HeLa cells [1]; 5 µM) was 17,74 pmol/sample and 18,28 pmol/sample and 16,92 pmol/sample and the SM22 (HeLa cells [1]; 5 µM) was 109,54 pmol/sample and 111,84 pmol/sample and 106,91 pmol/sample. For the same compound, the SM24 (HeLa cells [1]; 5 µM) was 166,35 pmol/sample and 172,87 pmol/sample and 164,46 pmol/sample, the “SM24:1” value (HeLa cells [1]; 5 µM) was 783,66 pmol/sample and 796,71 pmol/sample and 771,15 pmol/sample and the SM total (HeLa cells [1]; 5 µM) was 2892,80 pmol/sample and 2935,19 pmol/sample and 2832,39 pmol/sample. For the same compound, the Sph (HeLa cells [1]; 5 µM) was 2,83 pmol/sample and 2,13 pmol/sample and 3,03 pmol/sample, the “ratio total SM/Cer” value (HeLa cells [1]; 5 µM) was 31,2 and 27,7 and 28,1 and the “effect on intracellular distribution of BODIPY-Cer” value (HeLa cells [2]) was “only minor effects”.
